# From patent US5866577A, “Aromatic amidine derivatives and salts thereof” (priority 1991, dated 1999)
# Where a name gives a salt, the structure may show the parent alone.
# Experiments:
# [1] = system: male Slc:SD rats; experiment: Toxicity Test by Repeated Oral Administration to Rat; assay type: in vivo; settings: oral 800 mg/kg once a day for 10 days, 5 rats administered
# Experimental: Toxicity Test by Repeated Oral Administration to Rat
# Each of the compounds of the present invention was dissolved in distilled water and administered orally to each of five five-week old male Slc:SD rats, at a dose of 800 mg/kg body weight. The oral administration was carried out once a day and repeated for 10 days to observe mortality.
# [2] = system: human blood plasma (clotting time); experiment: Measurement of Anticoagulant Activity (plasma clotting time, CT2); assay type: biochemical; settings: concentration which doubles the control clotting time, 37° C.
# Experimental: Measurement of Anticoagulant Activity A blood plasma sample was prepared from human blood using a centrifuge. […] Thereafter, clotting time was measured using CLOTEC (Sanko Junyaku Co., Ltd.). A clotting time measured without adding a compound to be tested was used as a control, and a concentration of the test compound which doubles the control clotting time was calculated (hereinafter referred to as "CT2") as an index of the anticoagulant activity.
# [3] = system: male Slc:SD rats; experiment: Toxicity Test by Single Oral Administration to Rat; settings: in vivo
# [4] = system: thrombus formed on copper wire in arteriovenous shunt; experiment: Antithrombotic Effect by Oral Administration to Rat in an Arteriovenous Shunt Model; assay type: in vivo, male STD:Wistar rat; settings: for Thrombus formed: mean ± S.E. (n = 6), p < 0.05 per control
# Experimental: Antithrombotic Effect by Oral Administration to Rat in an Arteriovenous Shunt Model
# Amtithrombotic effect by oral administration of the compound of the present invention was measured by slightly modifying the procedure disclosed in Thrombosis Research, vol. 54, pp. 399-410, 1989.
# A predetermined amount of a compound to be tested was dissolved in purified water and administered orally to a male STD:Wistar rat, and the rat was anesthetized 15 minutes after the administration. An artery clip was attached to proximally the carotid artery of the thus anesthetized rat to stop blood circulation and to insert and fix an end of a shunt filled with physiological saline, while the other end of the shunt was inserted into the jugular vein and fixed. In this instance, the shunt was prepared by indwelling a copper wire (0.17 mm in diameter and 20 cm in length) in a polyethylene tube (Hibiki No. 5; 5/3 mm in outer diameter and 21 cm in length) and connecting each end of the tube with a polyethylene tube (Hibiki No. 3; 1 mm in outer diameter and 3 cm in length) using a 3 mm silicone tube. After 30 minutes of the administration, the artery clip was removed to flow blood into the shunt. After 7 minutes of the blood recirculation, the copper wire was pulled out together with formed thrombus and washed with 10 ml of physiological saline. Thereafter, the amount of thrombus formed on the copper wire was determined as protein in accordance with the procedure disclosed in Journal of Biological Chemistry, vol. 193, pp. 265-275, 1951. As a control, water was administered instead of the compound to be tested to calculate thrombosis inhibition rate after administration of the compound.
# [5] = Measurement of Solubility in Water
# Experimental: A fixed amount of water was added to a varying amounts of each sample, and the mixture was agitated on a shaker at 25° C. for 10 minutes.
# [6] = system: FXa and thrombin; settings: prior-art statement; cited from earlier work
# [7] = biological target: human FXa (Homo sapiens, UniProt P00742); experiment: Measurement of Activated Blood Coagulation Factor X (FXa) Inhibition Activity; assay type: biochemical; settings: substrate S-2222, 37° C., 15 minutes
# Experimental: Measurement of Activated Blood Coagulation Factor X (FXa) Inhibition Activity
# A 180 μl portion of physiological saline solution containing a compound to be tested was mixed with 200 μl of Tris-HCl buffer (pH 8.4) and 100 μl of 1 mM S-2222 (KabiVitrum AB) aqueous solution, and the mixture was incubated at 37° C. 20 μl of Tris-HCl buffered saline (pH 7.45) containing 0.6 unit/ml of human FXa was added to the mixture. After 15 minutes of incubation at the same temperature, the reaction was stopped by adding 100 μl of 60% acetic acid, and absorbance of the reaction mixture was measured. A reaction mixture with no addition of a test compound was used as a blank, and another reaction mixture in which 60% acetic acid was added prior to the addition of FXa was used as a control.
# [8] = system: anticoagulant effect; settings: oral; prior-art statement; cited from earlier work
# [9] = prior-art statement; cited from earlier work
# [10] = Solubility observed in preparation (solubility to any solvent); assay type: physicochemical; settings: hydrochloride monohydrate
# Sequence of human FXa (P00742 235-488 limits assumed): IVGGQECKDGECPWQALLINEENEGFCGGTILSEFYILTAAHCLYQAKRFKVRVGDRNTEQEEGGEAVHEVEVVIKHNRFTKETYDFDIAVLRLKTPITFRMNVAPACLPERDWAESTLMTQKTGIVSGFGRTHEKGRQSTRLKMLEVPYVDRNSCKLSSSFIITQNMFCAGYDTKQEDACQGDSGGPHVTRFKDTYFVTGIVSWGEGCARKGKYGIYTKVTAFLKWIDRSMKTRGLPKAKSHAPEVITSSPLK
# Sequence of human FXa (P00742 41-179 limits assumed): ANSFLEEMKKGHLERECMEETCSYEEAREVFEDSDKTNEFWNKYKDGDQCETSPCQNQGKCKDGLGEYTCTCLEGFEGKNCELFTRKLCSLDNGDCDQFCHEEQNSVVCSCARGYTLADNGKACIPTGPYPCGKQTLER
Compound,Mortal Case [1],Anti-Coagulation CT2 [2] [µM],solubility at 10 min [5] [mg/mL],also measured
"CC(=N)N1CC[C@H](Oc2ccc(C(Cc3ccc4ccc(C(=N)N)cc4c3)C(=O)O)cc2)C1.Cl.O.O.O.O.O (single isomer, unassigned; (+)) [Inventive Example 45]",0,0.49,≥ 200,mortality [3]: No mortal case; Thrombosis inhibition ([4]; 10 mg/kg): 34%; Thrombus formed ([4]; 10 mg/kg): 585 ± 85 µg; Thrombosis inhibition ([4]; 30 mg/kg): 60%; Thrombus formed ([4]; 30 mg/kg): 356 ± 51 µg
"N=C(N)c1ccc2oc(CCc3cc4cc(C(=N)N)ccc4o3)cc2c1 [DABE, 1,2-bis(5-amidino-2-benzofuranyl)ethane, reference compound]",,1.6,≤ 5,separation of FXa and thrombin inhibitory activities (in words) [6]: cannot be separated sufficiently from each other; IC50 [7]: 0.095 µM; anticoagulant effect when administered orally (in words) [8]: does not show its anticoagulant effect when administered orally; water solubility (in words) [9]: very low water solubility
"Cl.N=C(N)c1ccc2ccc(CC(C(=O)O)c3ccc(OCC4CCNCC4)cc3)cc2c1.O (centres unmarked) [Inventive Example 18, 3-(7-amidino-2-naphthyl)-2-[4-[(4-piperidinyl)methoxy]-phenyl]propionic Acid Hydrochloride Monohydrate]",,,,solubility to any solvent (in words) [10]: very low
"Cl.Cl.N=C(N)c1ccc2oc(CC(C(=O)O)c3ccc(O[C@H]4CCNC4)cc3)cc2c1 (stereo partly drawn) [Inventive Example 19, 3-(5-amidino-2-benzofuranyl)-2-[4-[((3S)-3-pyrrolidinyl)-oxy]phenyl]propionic Acid Dihydrochloride]",0,,≥ 450,
"Cl.Cl.N=C(N)c1ccc2sc(CC(C(=O)O)c3ccc(O[C@H]4CCNC4)cc3)cc2c1 (stereo partly drawn) [Inventive Example 25, 3-(5-amidinobenzo[b]thien-2-yl)-2-[4-[((3S)-3-pyrrolidin-yl)oxy]phenyl]propionic Acid Dihydrochloride]",0,,≥ 500,
"CC(=N)N1CC[C@H](Oc2ccc(C(Cc3cc4cc(C(=N)N)ccc4s3)C(=O)O)cc2)C1 (stereo partly drawn) [Inventive Example 88, 2-[4-[((3S)-1-acetimidoyl-3-pyrrolidinyl)oxy]phenyl]-3-(5-amidinobenzo[b]thien-^2-yl)propionic Acid Dihydrochloride]",0,,,
